The nature of the first series: in vitro. The following applies: human, hela cells, % viability.
For the compound `O=C(NC(C(=O)N/N=C/c1ccc(Cl)cc1Cl)c1n[nH]c(=O)c2ccccc12)c1ccccc1` (stereo not shown) [CBK261118], the viability at 28.5 h, 10 µM came out at 103%.

For the compound `O=C(Cc1ccccn1)N1CCN(Cc2ccccc2)CC1` [CBK200174], the viability at 28.5 h, 10 µM is 103%.

On to `CCCCNC(=O)c1ccc2nc(C)c(N(C)CC3CCCCC3)n2c1` [CBK145913], for which the viability at 28.5 h, 10 µM is 99.6%.

In the case of `CCOC(=O)N1CCC(NC(=O)N2CCN(CCc3ccccc3)CC2)CC1` [CBK158938], the viability at 28.5 h, 10 µM stood at 89.8%.

Regarding `CCOc1cc(/C=C2\SC(=S)N(NC(=O)c3cccnc3)C2=O)ccc1O` [CBK262759], the viability at 28.5 h, 10 µM came to 105%.

As for `O=C(CSc1nnc(SCc2cccc3ccccc23)s1)c1ccc(F)cc1` [CBK266218], the viability at 28.5 h, 10 µM is 98.9%.

Regarding `CC(C)NC(=O)C1CC2CCC1(C)C[C@]21NC(=O)c2ccccc2N1` (stereo partly shown) [CBK284444], the viability at 28.5 h, 10 µM came to 88.7%.

Turning to `CC(C)Cn1c(=O)[nH]c2ncc(-c3cccc4ccccc34)nc21` [CBK064194], the viability at 28.5 h, 10 µM amounted to 107%.

As to `Cc1ccc(S(=O)(=O)N(C)CC(=O)NCc2nc(-c3ccccc3)no2)cc1` [CBK268524], the viability at 28.5 h, 10 µM amounted to 93.4%.

Consider `Cc1nnsc1C(=O)Nc1ncn(CC(=O)N2CCCCCC2)n1` [CBK305522], for which the viability at 28.5 h, 10 µM is 96.9%.

For `O=C(O)CC1SC(N/N=C/c2ccc(-c3ccc(Cl)cc3[N+](=O)[O-])o2)=NC1=O` (stereo not shown) [CBK264507], the viability at 28.5 h, 10 µM amounted to 108%.

Turning to `O=C(NCCOc1ccccc1)N1CCN(c2ccc(F)cc2)CC1` [CBK156416], the viability at 28.5 h, 10 µM turned out to be 92.7%.

With `c1ccc(-c2ccno2)c(OCc2ccc(-c3nccnc3-c3nnn[nH]3)cc2)c1` [CBK050817], the viability at 28.5 h, 10 µM is 93.6%.

As for `O=c1[nH]cnc2c1nc(S)n2C1OC(CO)C(O)C1O` (stereo not shown) [CBK218834], the viability at 28.5 h, 10 µM turned out to be 96.4%.

Turning to `O=C1CC(c2ccco2)CC(=O)C1=CNCCN1CCNCC1` (stereo not shown) [CBK263668], the viability at 28.5 h, 10 µM stood at 99.7%.

As for `NS(=O)(=O)c1ccc(NC(=O)CN2C(=O)S/C(=C\C=C\c3ccccc3)C2=O)cc1` [CBK264835], the viability at 28.5 h, 10 µM is 94.6%.

With `O=C(O)CCCc1nc(-c2ccccn2)no1` [CBK010880], the viability at 28.5 h, 10 µM was 94.8%.

As for `COc1nccnc1OC1CCN(CCc2c[nH]c3ccccc23)CC1` [CBK084261], the viability at 28.5 h, 10 µM is 93.6%.

For the compound `Cc1c(F)cccc1CNCc1ccc(CNC(=O)OC(C)(C)C)cc1` [CBK056708], the viability at 28.5 h, 10 µM came to 103%.

For the compound `O=C(CSc1nncc(=O)[nH]1)NCc1ccccc1` [CBK270246], the viability at 28.5 h, 10 µM is 85.3%.

Take `O=C(Nc1ccc([C@@H](O)[C@H]2COCC(=O)N2Cc2ccccc2F)cc1)c1cnccn1` [CBK289060]: the viability at 28.5 h, 10 µM amounted to 83.2%.

For the compound `Cc1cccc(NCC2CCN(CC(=O)Nc3cc(C)on3)C2)n1` (stereo not shown) [CBK306118], the viability at 28.5 h, 10 µM turned out to be 90.4%.

In the case of `O=C(COc1ccc(S(=O)(=O)N2CCCCC2)cc1Cl)N1CCc2ccccc2C1` [CBK269510], the viability at 28.5 h, 10 µM is 88%.

As for `CCOc1ccccc1C(=O)Nc1cnc(-c2cccc(OC(F)(F)F)c2)c(-c2cccnc2)n1` [CBK036952], the viability at 28.5 h, 10 µM turned out to be 114%.

For the compound `O=C(Nc1ccccc1)c1ccc(N2CCN(c3ccccn3)CC2)c(S(=O)(=O)N2CCOCC2)c1` [CBK266810], the viability at 28.5 h, 10 µM worked out at 91.7%.

On to `CCOC(=O)CN1CCC(Oc2cncc(Oc3ccc(OC)c(OC)c3)n2)C1` (stereo not shown) [CBK084405], for which the viability at 28.5 h, 10 µM came out at 91.3%.

Turning to `CN(C)CCN(C)c1cncc(-c2cc3ccccc3o2)n1` [CBK066028], the viability at 28.5 h, 10 µM came out at 92.7%.

For `Clc1ccc(Nc2nc(-c3ccoc3)cn3ccnc23)cc1` [CBK066497], the viability at 28.5 h, 10 µM was 102%.

On to `CN1CCC(C(=O)N2CCN(c3ncccn3)CC2)CC1` [CBK144511], for which the viability at 28.5 h, 10 µM was 102%.

As for `C[C@H](Nc1cncc(-c2cccs2)n1)c1ccccc1` [CBK065719], the viability at 28.5 h, 10 µM worked out at 93.5%.

Take `COc1ccc(CN2CCOCC2CC(=O)O)cc1Cn1cncn1` (stereo not shown) [CBK307220]: the viability at 28.5 h, 10 µM was 92.7%.

On to `Cc1ccc2cc3c(nc2c1)OCC(=O)N(Cc1ccco1)C3` [CBK283539], for which the viability at 28.5 h, 10 µM amounted to 92.9%.

Take `COc1cccc(/C=C/c2nc(C#N)c(NCCCN3CCOCC3)o2)c1` [CBK269506]: the viability at 28.5 h, 10 µM worked out at 107%.

Turning to `CCNC(=S)N(CCc1ccccc1)C1CC(=O)N(c2ccc(F)cc2)C1=O` (stereo not shown) [CBK262941], the viability at 28.5 h, 10 µM was 87.6%.

For the compound `COc1cccc(-c2coc3cc4oc(=O)c(CC(=O)O)c(C)c4cc23)c1` [CBK269520], the viability at 28.5 h, 10 µM was found to be 86.6%.

In the case of `N#CC(NS(=O)(=O)c1ccc(OC(F)(F)F)cc1)c1ccccc1` (stereo not shown) [CBK043714], the viability at 28.5 h, 10 µM came out at 97.6%.

For the compound `O=C(Cc1ccccc1Cl)NCc1nnc(-c2cccs2)o1` [CBK284643], the viability at 28.5 h, 10 µM is 96.4%.

Turning to `COc1ccc(Oc2c(C)n[nH]c2-c2ccc(O)cc2O)cc1` [CBK288239], the viability at 28.5 h, 10 µM amounted to 96%.

`CC(=S)NCC1CC(c2ccc(N3CC[S+]([O-])CC3)c(F)c2)=NO1` (stereo not shown) [CBK017992]: the viability at 28.5 h, 10 µM is 110%.

With `COc1ccc(C)cc1S(=O)(=O)Nc1ccc(O[C@@H]2CCNC2)c2ccccc12` [CBK051622C], the viability at 28.5 h, 10 µM came out at 104%.

As to `CC(C)NC(=O)CN1CCN(Cc2nc(-c3cccc(Cl)c3)no2)CC1` [CBK304369], the viability at 28.5 h, 10 µM was 100%.

As for `Clc1ccc(CSc2nccnc2N2CCCC2)cc1` [CBK107177], the viability at 28.5 h, 10 µM was 95.9%.

Consider `CC(C)(C)c1ccc(C(=O)NC(=S)Nc2ccc(O)c(-c3nc4cc(Cl)ccc4o3)c2)cc1` [CBK264169], for which the viability at 28.5 h, 10 µM turned out to be 88%.

In the case of `CC(=O)Nc1ccc(Nc2cc(-c3ccsc3)ncn2)cc1` [CBK090717], the viability at 28.5 h, 10 µM turned out to be 96.8%.

With `O=C(CCc1ccco1)N1CCCCC1c1nc2ccccc2[nH]1` (stereo not shown) [CBK283711], the viability at 28.5 h, 10 µM was 99.9%.

`OC(CN1CCC(O)(c2ccccc2F)CC1)c1ccccc1` (stereo not shown) [CBK282490]: the viability at 28.5 h, 10 µM stood at 107%.

With `COc1cccc(/C=C2/SC(=S)N(C)C2=O)c1OCCCOc1ccc(C)cc1C` [CBK264446], the viability at 28.5 h, 10 µM was determined as 102%.

Turning to `c1ccc(CSc2nc3ccccc3s2)nc1` [CBK027737], the viability at 28.5 h, 10 µM amounted to 76.2%.

For the compound `COc1ccc(N2CCN(c3c(C)c(C)nc4cc(-c5nccn5C)nn34)CC2)cc1` [CBK286178], the viability at 28.5 h, 10 µM stood at 85.1%.

Take `COc1cccc(NC(=O)c2ccc(N(C)Cc3ccccc3)c([N+](=O)[O-])c2)c1` [CBK267827]: the viability at 28.5 h, 10 µM stood at 95.1%.

As to `CCOc1ccc(NC(=O)CSc2nc3nc(C)cc(C)n3n2)cc1` [CBK268278], the viability at 28.5 h, 10 µM stood at 107%.

Regarding `COCCN(C)c1ccc(C(=O)N2CCC(N3CCOCC3)CC2)cn1` [CBK306851], the viability at 28.5 h, 10 µM stood at 111%.

Take `COc1ccccc1NC(CC(=O)c1ccccc1)C(=O)O` (stereo not shown) [CBK287190]: the viability at 28.5 h, 10 µM was determined as 83.8%.

With `C[S+]([O-])CCNC(=O)c1cc(-c2cccs2)no1` (stereo not shown) [CBK282563], the viability at 28.5 h, 10 µM turned out to be 84.5%.

Take `CCC(C)c1ccc(NC(C)C(=O)Nc2ccc3[nH]c(=O)[nH]c3c2)cc1` (stereo not shown) [CBK296694]: the viability at 28.5 h, 10 µM amounted to 92.1%.

As for `O=C(Cn1cccc2cc(C3CCNCC3)nc1-2)N1CCCC1` [CBK284680], the viability at 28.5 h, 10 µM was found to be 98%.

Turning to `O=C(c1ccccc1[N+](=O)[O-])n1nc(-c2cccnc2)nc1NCc1cccs1` [CBK269094], the viability at 28.5 h, 10 µM worked out at 99.5%.

Take `CN(C)C(=O)c1ccc(-c2ccc(OC3CCN(C(=O)CCC(=O)N4CCCC4)CC3)nc2)cc1` [CBK155051]: the viability at 28.5 h, 10 µM came out at 108%.

As for `O=S(=O)(c1ccccc1)c1cn2ccnc2c(N2CCNCC2)n1` [CBK200021T], the viability at 28.5 h, 10 µM came out at 98.3%.

As to `O=c1[nH]nc2c3c(nc(-c4ccncc4)n12)CCCC3` [CBK288029], the viability at 28.5 h, 10 µM was 109%.

As to `N#Cc1ccc(OCC(=O)Nc2ncccn2)cc1` [CBK304578], the viability at 28.5 h, 10 µM is 85.4%.

For the compound `CC(Oc1cccc(C#N)c1)C(=O)N1CCCC1C(=O)NCC(F)(F)F` (stereo not shown) [CBK305435], the viability at 28.5 h, 10 µM stood at 93.8%.

Regarding `CN(C)CCN1CCN(c2cccc(-c3ccc(-c4ccccc4)cc3)n2)CC1` [CBK037610], the viability at 28.5 h, 10 µM turned out to be 103%.

For the compound `CCn1cc(CN(Cc2ccccc2)CC2CCCO2)c(C)n1` (stereo not shown) [CBK283265], the viability at 28.5 h, 10 µM was determined as 93.7%.

`c1ccc(CN2CCC3(CC2)CNCc2ccccc2O3)cc1` [CBK282605]: the viability at 28.5 h, 10 µM came to 88.4%.

With `CCOC(=O)c1cnn2c(N)c(C(N)=O)nnc12` [CBK023694], the viability at 28.5 h, 10 µM turned out to be 98.2%.

Turning to `CNC(=S)N1CCN(c2nccnc2NS(=O)(=O)Cc2ccccc2)CC1` [CBK049044], the viability at 28.5 h, 10 µM stood at 102%.

`COc1ccc(Cl)cc1NC(=S)NCCc1ccc(S(N)(=O)=O)cc1` [CBK267198]: the viability at 28.5 h, 10 µM came to 85.6%.

For `Cc1cc(C)nc(Nc2n[nH]c(Cc3ccccc3)n2)n1` [CBK267023], the viability at 28.5 h, 10 µM was found to be 96.3%.

As to `COc1ccc(OCC(=O)N/N=C\c2c(OC)ccc3ccccc23)c(Br)c1` [CBK261235], the viability at 28.5 h, 10 µM was 86.3%.

Turning to `O=C1/C(=N\Nc2ccc([N+](=O)[O-])cc2[N+](=O)[O-])c2cc(Br)ccc2N1CN1CCCCC1` [CBK260927], the viability at 28.5 h, 10 µM was found to be 110%.

As for `CCSc1nc(N)cc(O)n1` [CBK086474], the viability at 28.5 h, 10 µM worked out at 90.5%.

Consider `CC(C)[C@H]1SC(NC[C@H](C)c2ccccc2)=NC1=O` [CBK074034], for which the viability at 28.5 h, 10 µM was found to be 93.6%.

Consider `CN1CCC2(CC1)NCCc1c2ccn1S(=O)(=O)c1cccc2c(N(C)C)cccc12` [CBK061633C], for which the viability at 28.5 h, 10 µM was 105%.

On to `c1ccc2[nH]c(CCc3nc4ccccc4[nH]3)nc2c1` [CBK261807], for which the viability at 28.5 h, 10 µM turned out to be 111%.

With `CC(C)(C)c1nnc(NS(=O)(=O)c2ccc([N+](=O)[O-])cc2)s1` [CBK045500], the viability at 28.5 h, 10 µM was 93.3%.

As for `Cc1cccnc1NC(=O)c1ccc(NC(C)C)c([N+](=O)[O-])c1` [CBK269494], the viability at 28.5 h, 10 µM is 86.1%.

On to `O=C(CN1CCOCC1)Nc1sc2c(c1C(=O)Nc1ccc(Br)cc1)CCC2` [CBK265073], for which the viability at 28.5 h, 10 µM is 111%.

Still in this series, the particulars now being: human, hela cells, % viability, bulk resorufin, single well.
As for `CCOC(=O)C1(c2ccccc2)CCN(C(=O)N(CCN)CCC(C)c2ccccc2)CC1` (stereo not shown) [CBK002129C], the viability at 28.5 h, 10 µM amounted to 82.6%.

The record behind these values is paper PMC12040169 (PLOS Biology, 2025).
